Tested on: adriamycin induced nephropathy (FSGS model)
Experiment: Adriamycin induced nephropathy mouse model of FSGS, proteinuria (UPCR, UACR) in spot urine
Type: in vivo, Female Balb/c mice
Settings: for urinary protein to creatinine ratio (UPCR): Balb/c mice, adriamycin 10.5 mg/kg i.v., chow + genistein 500 mg/kg (about 80 mg/kg mouse/day) from day 2, weekly spot urine, vs control chow
Experimental: For biological testing of genistein, the accepted mouse models of FSGS, was chosen, i.e. the adriamycin induced nephropathy. […] All animal experiments and handling were in accordance with the Austrian law for protection of animals and approved by the animal ethics committee of the Austrian ministry for science and research.
Adriamycin (Doxorubicin; Sigma, D1515-10 mg) was diluted in ddH2O. To induce FSGS, a dose of 10.5 mg/kg mouse was injected i.v. into the tail vein using 27G needles, i.e. a total volume of 200 μl volume per 25 g mouse.
For tail vein injection, mice were anaesthetized using Ketanest (Pfizer, 25 mg/ml vials) and Rompun (Bayer, 20 mg/ml injection solution). A final mix of 12.5 mg/ml Ketanest and 0.25% Rompun in 0.9% NaCl solution was prepared and 200 μl/25 g mouse were injected. Genistein (Selleckchem, S1342) was used for therapy experiments.
Female Balb/c mice were obtained from the animal breeding facility of the Medical University (Abteilung kw Labortierkunde, Himberg, Austria). 8-18 weeks old animals with a weight >17g were used for the experiments and adjusted for weight and age. Animals were allowed acclimatization of at least 7 days. Animal were marked by ear or toe clip codes to allow identification. Adriamycin nephropathy in Balb/c mice is the most commonly used animal model for preclinical FSGS studies and shares the central features with human FSGS.
Standard commercial chow from ssniff (ssniff Spezialdiäten GmbH, Soest, Germany) contained crude protein (19%), crude fat (3.3%), crude fiber (4.9%), crude ash (6.4%), starch (36.5%), sugar (4.7%). Control group animals were fed standard chow, test group animals standard chow+genistein (500 mg/kg) produced by ssniff. All animals were allowed to eat ad libitum assuming a daily average uptake of about 4 grams/mouse (according to animal care guideline of the Johns Hopkins University, Baltimore, MD, USA; http://web.jhu.edu/animalcare/ procedures/mouse.html), i.e. about 80 mg genistein/kg mouse/day (Odle et al. 2017).
Spot urine was collected every week and Creatinine and protein levels were measured in the Clinical Institute for Laboratory Medicine of the Medical University Vienna.
Urinary albumin was measured by ELISA. 96-well plates were coated over night at 4° C. with 100 μl antibody solution Anti Mouse Serum Albumin antibody (Abcam ab34807, Lot GR3242102-4; diluted 1:2,000) in coating buffer (3.7g NaHCO3; 0.64 g Na2CO3; 1L distilled water). The remaining procedure was performed at room temperature. Wells were washed 3× with HBSS (Sigma H8264-500ML) +0,05% Tween-20 (Bio-Rad, #1706531) and blocked in ELISA/ELISPOT Diluent (eBioscience, 00-4202-56) and washed again for 3×. Samples and standard curve were both diluted in ELISA/ELISPOT diluent were incubated for 2 h, followed by 3 wash steps with HBSS+0.05% Tween-20, incubated with HRP antibody Anti Mouse Serum Albumin antibody (Abcam ab19195, Lot GR3242102-4; diluted 1:100,000) for 1 h, followed by 5 was steps. Reaction was developed with TMB One Solution (Promega, G7431) and stopped with 2N H2SO4. Standard curves were generated with Mouse Albumin (Merck/Sigma, 126674-25MG). 450nm absorbance was measured on an Epoch Microplate reader (BioTek) using Gen5 1.10 software.
R version 4.0.2 was used for statistical analysis. Student's t-test was used for comparing UPCR and UACR values between samples from treated and control mice for each individual time point and to assess differences in histological parameters. […]

In the case of O=c1c(-c2ccc(O)cc2)coc2cc(O)cc(O)c12 [Genistein, 5,7-Dihydroxy-3-(4-hydroxyphenyl)chromen-4-one], the “urinary protein to creatinine ratio (UPCR)” value is reported as “marked amelioration”, the “urinary protein to creatinine ratio (UPCR)” value (listed as compound of the present invention) is reported as “significantly lowered” and the Proteinuria (adriamycin FSGS mice, genistein chow vs control) is reported as “Significantly Reduces”. The “impact of genistein treatment over time on outcome determined based on UPCR levels (repeated measures ANOVA)” value (adriamycin FSGS mice, genistein chow vs control, all collected urines (FIG. 1)) was “significant beneficial impact” and the “urine albumin/creatinine ratio (UACR)” value (animal studies, urinary albumin by ELISA, genistein vs control) was “significantly lowered”.

From patent US20240058298A1, “GENISTEIN FOR USE IN THE TREATMENT OF FOCAL SEGMENTAL GLOMERULOSCLEROSIS (FSGS)” (Delta 4 GmbH, priority 2020, published 2024)
